Values of other authors in patent US3993756A, “Antilipemic agent containing a soybean oil fraction” (priority 1975, dated 1976).

Legend:
[1] = test system: cholesterol level in blood serum; settings: for effect on cholesterol level in blood serum: in vivo
[2] = in vivo

| SMILES | effect on cholesterol level in blood serum [1] | absorption by the body [2] | liver or kidney troubles ([1]; 20 to 30 g per day, long periods) |
| --- | --- | --- | --- |
| CC[C@H](/C=C/[C@@H](C)[C@H]1CC[C@H]2[C@@H]3CC=C4C[C@@H](O)CC[C@]4(C)[C@H]3CC[C@]12C)C(C)C [stigmasterol] | effective for lowering the cholesterol level in blood serum |  |  |
| CC[C@H](CC[C@@H](C)[C@H]1CC[C@H]2[C@@H]3CC=C4C[C@@H](O)CC[C@]4(C)[C@H]3CC[C@]12C)C(C)C [β-sitosterol] | effective for lowering the cholesterol level in blood serum | low absorption | inviting liver or kidney troubles |
